{"source": "patent US20200222377A1", "about": "“Methods Of Enhancing And/Or Stabilizing Cardiac Function In Patients With Fabry Disease” (Amicus Therapeutics, Inc., priority 2017, published 2020)", "key": {"[1]": {"tested_on": "ERT-naïve Fabry patients", "conditions": "human, in vivo", "protocol": "(§1) Study Design. Following eligibility-baseline assessments (2 months), patients were randomized to Stage 1—6 months of double-blind administration of 150 mg migalastat hydrochloride or placebo every other day. All patients completing Stage 1 were eligible to receive open-label migalastat in Stage 2 (months 6-12) and for an additional year (months 13-24) thereafter. The primary objective was to compare the effect of migalastat to placebo on kidney GL-3 as assessed by histological scoring of the number of inclusions in interstitial capillaries after 6 months of treatment. The secondary objectives of Stage 1 were to compare the effect of migalastat to placebo on urine GL-3 levels, on renal function, 24-hours urinary protein, and on safety and tolerability. The tertiary objectives were cardiac function, patient-reported outcomes, exploratory kidney analyses, and white blood cell α-Gal A activity. Study completers were eligible to enroll in the open-label extension study for up to 5 years.\n(§2) Safety Analysis and Adverse Events. Randomized patients receiving ≥1 dose were included in the safety analysis, which comprised vital signs, physical exams, electrocardiograms, clinical labs, and adverse events."}, "[2]": {"tested_on": "ERT-experienced Fabry patients", "test": "Phase 3 study of migalastat therapy in ERT-experienced Fabry patients: MWFS by echocardiography", "format": "in vivo, human", "experimental": "This example describes a Phase 3 study of migalastat therapy in ERT-experienced Fabry patients.\nStudy Design. Following eligibility-baseline assessments, 57 patients were randomized to 18 months of migalastat therapy or ERT, followed by followed by 12 months of migalastat therapy. The migalastat dosing regimen was 150 mg of migalastat hydrochloride every other day.\nBaseline MWFS. At baseline, impaired MWFS (<15% for females and <14% for males) was reported in 19 (14 migalastat, 5 ERT) patients."}, "[3]": {"molecular_target": "T1, wild-type α-Gal A and specific mutant forms of α-Gal A (Homo sapiens, UniProt P06280)", "T1 sequence (P06280 32-429)": "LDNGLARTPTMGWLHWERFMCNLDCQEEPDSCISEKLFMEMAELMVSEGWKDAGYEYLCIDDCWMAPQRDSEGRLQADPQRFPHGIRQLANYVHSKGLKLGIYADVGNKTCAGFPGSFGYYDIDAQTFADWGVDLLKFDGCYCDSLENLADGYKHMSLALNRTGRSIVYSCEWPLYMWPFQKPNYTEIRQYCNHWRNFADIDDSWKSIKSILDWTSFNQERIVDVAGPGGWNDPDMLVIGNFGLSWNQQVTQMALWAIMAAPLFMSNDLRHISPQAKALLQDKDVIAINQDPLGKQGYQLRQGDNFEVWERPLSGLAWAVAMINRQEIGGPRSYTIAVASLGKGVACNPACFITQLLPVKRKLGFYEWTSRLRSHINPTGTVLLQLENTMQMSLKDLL", "conditions": "selective and reversible binding; cited from earlier work"}, "[4]": {"tested_on": "ERT-naïve Fabry patients", "test": "Phase 3 study in ERT-naïve Fabry patients: safety analysis and adverse events", "protocol": "as §1, §2"}, "[5]": {"tested_on": "ERT-naïve Fabry patients", "test": "Phase 3 study of migalastat therapy in ERT-naïve Fabry patients: MWFS by echocardiography", "format": "in vivo, human", "conditions": "for Change from baseline in MWFS, mean / Mean change from baseline in MWFS: amenable mutations", "experimental": "This example describes a Phase 3 study of migalastat therapy in ERT-naïve Fabry patients. Patient Enrollment. […] Study Design. […] Echocardiography. LVMi, left posterior wall thickness, diastolic, interventricular septum thickness, diastolic and other parameters were assessed through blinded, centralized evaluation. Baseline MWFS. At baseline, impaired MWFS (<15% for females and <14% for males) was reported in 9 patients."}, "[6]": {"conditions": "open-label-extension (months 12-24), 6/57 patients"}, "[7]": {"conditions": "patients with LVH at baseline, Month 48"}}, "data": [{"smiles": "OC[C@H]1NC[C@H](O)[C@@H](O)[C@H]1O", "note": "[migalastat, (2R,3S,4R,5S)-2-(hydroxymethyl) piperdine-3,4,5-triol]", "values": [{"measurement": "Deaths", "setting": "[1]", "value": "No deaths were reported"}, {"measurement": "Effect on MWFS (in words)", "setting": "[2]; ERT-experienced patients with impaired MWFS at baseline", "value": "stabilized MWFS"}, {"measurement": "Mean change from baseline in MWFS", "setting": "[2]; patients with impaired MWFS at baseline, LOCF, over 30 months of migalastat therapy, n=14", "value": "−0.2", "unit": "%"}, {"measurement": "Binding to the active site of α-Gal A (in words)", "setting": "[3]", "value": "high affinity"}, {"measurement": "Patients who experienced serious adverse events", "setting": "[4]; Stage 1, migalastat group", "value": 2, "unit": "patients"}, {"measurement": "Patients who experienced serious adverse events", "setting": "[4]; Stage 2", "value": 5, "unit": "patients"}, {"measurement": "Adverse event frequency: procedural pain (related to kidney biopsies)", "setting": "[4]; Stage 2 (months 6-12, open-label), 7/63 patients", "value": 11, "unit": "%"}, {"measurement": "Adverse event frequency: headache", "setting": "[4]; Stage 2 (months 6-12, open-label), 9/63 patients", "value": 14, "unit": "%"}, {"measurement": "Progression to end-stage renal disease, cardiac death, stroke", "setting": "[4]; as defined in Banikazemi et al.", "value": "no progression to end-stage renal disease, no cardiac death and no stroke"}, {"measurement": "Patients who discontinued migalastat due to serious adverse events", "setting": "[4]; both deemed unrelated to migalastat", "value": "Two"}, {"measurement": "Serious adverse events assessed as possibly related to migalastat by the investigator", "setting": "[4]; fatigue and paresthesia, same patient, months 12-24, resolved", "value": "Two"}, {"measurement": "Adverse events leading to migalastat discontinuation", "setting": "[4]; human, in vivo", "value": "No adverse events led to migalastat discontinuation"}, {"measurement": "Severity of most adverse events", "setting": "[4]; human, in vivo", "value": "mild or moderate in severity"}, {"measurement": "Vital sign, physical findings, laboratory and ECG parameters", "setting": "[4]; human, in vivo", "value": "did not reveal any clinically relevant effect"}, {"measurement": "Transient ischemic attack", "setting": "[4]; judged unrelated to migalastat", "value": "single case"}, {"measurement": "Patients who experienced serious adverse events", "setting": "[4]; open-label-extension", "value": 11, "unit": "patients"}, {"measurement": "Adverse event frequency: bronchitis", "setting": "[4]; [6]", "value": 11, "unit": "%"}, {"measurement": "Adverse event frequency: headache", "setting": "[4]; [6]", "value": 11, "unit": "%"}, {"measurement": "Adverse event frequency: proteinuria (treatment-emergent)", "setting": "[4]; open-label-extension (months 12-24), 9/57 patients", "value": 16, "unit": "%"}, {"measurement": "Patients in whom 24-hour urine protein remained stable during migalastat treatment", "setting": "[4]; patients with baseline proteinuria <300 mg/24-h", "value": "23/28"}, {"measurement": "Effect on MWFS (in words)", "setting": "[5]; ERT-naïve patients with impaired MWFS at baseline", "value": "increased MWFS"}, {"measurement": "Change from baseline in MWFS, mean", "setting": "[5]; patients with LVH at baseline, LOCF, over 48 months", "value": 1.0, "unit": "%"}, {"measurement": "Change from baseline in MWFS, mean", "setting": "[5]; patients with LVH at baseline, Month 12", "value": 0.2, "unit": "%"}, {"measurement": "Change from baseline in MWFS, mean", "setting": "[5]; patients with LVH at baseline, Month 24", "value": 0.9, "unit": "%"}, {"measurement": "Change from baseline in MWFS, mean", "setting": "[5]; patients with LVH at baseline, Month 36", "value": 0.7, "unit": "%"}, {"measurement": "Change from baseline in MWFS, mean", "setting": "[5]; [7]", "value": 0.6, "unit": "%"}, {"measurement": "Normalization of MWFS, patients n/N (%)", "setting": "[5]; [7]", "value": 0}, {"measurement": "Mean change from baseline in MWFS", "setting": "[5]; patients with impaired MWFS at baseline, LOCF, over 48 months", "value": 1.9, "unit": "%"}, {"measurement": "Mean change from baseline in MWFS", "setting": "[5]; patients with impaired MWFS at baseline, LOCF, over 48 months, listed as Migalastat", "value": 1.9, "unit": "%"}, {"measurement": "Mean change from baseline in MWFS", "setting": "[5]; patients with impaired MWFS at baseline, Month 12, 150 mg migalastat HCl QOD", "value": 0.1, "unit": "%"}, {"measurement": "Mean change from baseline in MWFS", "setting": "[5]; patients with impaired MWFS at baseline, Month 24", "value": 1.4, "unit": "%"}, {"measurement": "Mean change from baseline in MWFS", "setting": "[5]; patients with impaired MWFS at baseline, Month 36", "value": 1.4, "unit": "%"}, {"measurement": "Mean change from baseline in MWFS", "setting": "[5]; patients with impaired MWFS at baseline, Month 48", "value": 2.4, "unit": "%"}, {"measurement": "Normalization of MWFS, patients n/N (%)", "setting": "[5]; patients with impaired MWFS at baseline, Month 12", "value": 0}]}]}
